# Laboratory results: patent US20060275826A1, “Artificial antibody comprising complementary peptide” (priority 2003, published 2006)
# pIC50: −log10 of the molar value. No end group written: not given here.
# Experiments:
# [1] = target: T1, HIV transcriptase (HIV-RT) (Human immunodeficiency virus type 1 group M subtype B, UniProt P04585); assay: Sandwich ELISA detecting HIV-RT with complementary peptides as artificial antibody peptides; type: binding; conditions: wells coated with ESLA 2340, detection with biotin-labeled TLMA 2993 and peroxidase-labeled avidin
# T1 construct: reverse transcriptase (abbreviated as RT hereinafter)
# Method: Wells of a 96 well plate were coated with ESLA 2340 in advance. After adding a diluted solution of HIV-RT in each well and allowing the plate to stand overnight at 4° C., the plate was washed and biotin-labeled TLMA 2993 was added to each well. The plate was allowed to stand for 1 hour at room temperature. After washing the plate again, peroxidase-labeled avidin was added to allow it to react at room temperature for 1 hour. After washing the plate to remove unreacted avidin, a color development reaction was performed by a conventional method at room temperature by adding a color developing reagent of peroxidase.
# [2] = target: T2, reverse transcriptase (RT) of human immunodeficiency virus-1 (HIV-1) (Human immunodeficiency virus type 1 group M subtype B, UniProt P04585); assay: HIV-RT activity assay (primer tRNALys3 elongation on viral genome RNA, autoradiography); type: biochemical; conditions: for pIC50: 50% suppression concentrations against RT, 50 ng HIV-RT, 37° C., 15 minutes; for suppressing activity against RT activity: result in words
# T2 construct: reverse transcriptase (abbreviated as RT hereinafter)
# Description: Complementary peptides against peptides at each site of reverse transcriptase (abbreviated as RT hereinafter) of a pathogenic virus of AIDS, human immunodeficiency virus-1 (HIV-1), were automatically designed using an analysis program (MIMETIC), and the peptides shown in Table 1 were designed. The designed peptides were synthesized by a conventional solid phase method by allowing 9-fluorenylmethoxycarbonyl (Fmoc) amino acids to sequentially bind using a peptide synthesizer (trade name: AMS 422 Multiple Peptide Synthesizer, manufactured by ABiMED Co.). The synthesized peptide was released from the solid support by a conventional method, and protective groups were removed. The peptide obtained was recovered by ether precipitation, and was purified with reversed phase HPLC after removing ether by drying. A culture supernatant of PLB cells (established human lymphocyte strain) infected with HIV-1 was placed on a top layer of layered 65% and 15% sucrose solutions in a ultracentrifuge tube, and HIV-1 particles were retrieved by ultracentrifugation for 1 hour at 26,500 rpm. Virus RNA was extracted by a guanidine isothiocyanate method (Chomezynski, P. and Sacchi, N., RNA Isolation from Cultured cells, Analytical Biochemistry, 162: 156-159, 1987), and the extract was used by dissolving in 5 mM Tris buffer (pH 7.5). The amount of the whole length virus genome RNA contained in the total RNA sample was quantified according to a conventional ribonuclease protection method (Kaye, J. F. et al., Cis-acting Sequences Involved in Human Immunodeficiency Virus Type 1 RNA Packaging, J. Virol, 69: 6588-6592, 1995; and Huang, Y. et al., The Role of Nucleocapsid and U5 stem/A rich Loop Sequences in tRNA (3Lys) Genomic Placement and Initiation of Reverse Transcription in Human Immunodeficiency Virus Type 1, J. Virol., 72: 3907-3915, 1997). The virus genome binds to tRNA^Lys3 in the cell, and can be used for measuring RT activity. The RNA genome of about 5×10^7 molecules was allowed to react with 50 ng of HIV-RT, 10 units of […] and dNTP's (deoxynucleic acid) at 37° C. for 15 minutes in 20 μl of RTbuffer (50 mMTris-HCl, pH 7.5, 60 mM KCl, 3 mM MgCl2 and 10 mM DTT). The sequence at the tip of the molecule comprises six bases of CTGCTA. One base was added to tRNA^Lys3 using ^32P-dCTP with a radioactivity of 5 μci, and 6 bases were further added by allowing 0.2 mM of dCTP, 0.2 mM of dTTP, 5 μCi of ^32p-dGTP and 0.05 mM of ddATP to react. The elongated primer was retrieved by ethanol precipitation, and was analyzed by auto-radiography through electrophoresis on 6% polyacrylamide gel containing 7 M urea.
# [3] = target: T3, ProCPR (Homo sapiens, UniProt Q96IY4); assay: Surface plasmon resonance analyzer (Biacore) reactivity to ProCPR; type: binding
# T3 sequence (Q96IY4 23-423 limits assumed): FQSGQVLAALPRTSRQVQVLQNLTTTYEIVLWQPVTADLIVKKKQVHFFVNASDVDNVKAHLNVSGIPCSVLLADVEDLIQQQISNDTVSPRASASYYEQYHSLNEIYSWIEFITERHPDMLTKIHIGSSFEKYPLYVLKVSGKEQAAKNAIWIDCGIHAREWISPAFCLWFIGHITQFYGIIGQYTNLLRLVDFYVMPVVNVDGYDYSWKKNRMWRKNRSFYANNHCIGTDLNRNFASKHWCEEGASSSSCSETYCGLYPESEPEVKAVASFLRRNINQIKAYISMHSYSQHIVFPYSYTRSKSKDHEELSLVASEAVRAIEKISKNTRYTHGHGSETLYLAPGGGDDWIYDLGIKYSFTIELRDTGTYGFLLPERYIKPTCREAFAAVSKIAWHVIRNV
# [4] = target: T4, ProCPR (Homo sapiens, UniProt Q96IY4); assay: Plate ELISA: VGG-coated plate, human plasma containing ProCPR, biotin-labeled 10G1 antibody; type: binding; conditions: plate coated with VGG, diluted human plasma
# T4 construct: diluted human plasma containing ProCPR; from tissue; host or cells: human plasma
# T4 sequence (Q96IY4 115-423): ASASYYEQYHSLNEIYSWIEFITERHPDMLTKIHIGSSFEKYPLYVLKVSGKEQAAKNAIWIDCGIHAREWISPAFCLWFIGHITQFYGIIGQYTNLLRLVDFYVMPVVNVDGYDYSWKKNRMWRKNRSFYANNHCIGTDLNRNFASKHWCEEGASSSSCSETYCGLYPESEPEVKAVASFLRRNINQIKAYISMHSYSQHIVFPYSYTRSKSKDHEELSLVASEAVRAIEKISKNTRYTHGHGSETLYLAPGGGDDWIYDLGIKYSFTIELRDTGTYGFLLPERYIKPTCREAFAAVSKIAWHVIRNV
# Method: After coating the plate with VGG and washing the plate, diluted human plasma containing ProCPR was added to the plate and was allowed to react for 1 hour at room temperature. After removing excess plasma by washing the plate, 10G1 as a […] was added followed by allowing it to react for 1 hour at room temperature. Excess 10G1 antibody was removed by washing the plate, and remaining 10G1 antibody was allowed to react by adding peroxidase-labeled avidin. After removing unreacted avidin by washing, the reaction solution was made to develop a color by a conventional method depending on the strength of the enzyme reaction of peroxidase by adding a peroxidase color development reagent, and the intensity of the color was measured with a plate reader.
# [5] = target: T5, Pro-carboxypeptidase R (ProCPR) (Homo sapiens, UniProt Q96IY4); assay: Activation of ProCPR to CPR by thrombin-thrombomodulin (T/TM) complex, hippuryl-L-arginine substrate; type: biochemical; conditions: 1 μM of peptide
# T5 sequence (Q96IY4 23-423 limits assumed): T3 sequence (Q96IY4 23-423 limits assumed)
# Description: Pro-carboxypeptidase R (abbreviated as ProCPR hereinafter) is converted into active carboxypeptidase R (abbreviated as CPR hereinafter) by trimming a sequence from an amino terminal to arginine 92 with a trypsin-like enzyme such as thrombin and plasmin. A complementary peptide corresponding to the amino acid sequence comprising 30, 24, 20, 15 or 11 amino acids from amino acid 87 counted from the amino terminal of the ProCPR was automatically designed using the analysis program MIMETIC of the invention, and the peptides shown in Table 2 were designed. An action on the activation reaction of ProCPR by a thrombin-thrombomodulin complex (abbreviated as T/TM complex hereinafter) was analyzed with respect to the peptides (the peptides in notes (1) and (2) in Table 2) comprising 20 and 15 amino acids of the complementary peptides described above. The designed peptides were synthesized by a conventional solid state method by which 9-fluorenylmethoxycarbonyl (Fmoc) amino acids are sequentially linked using a peptide synthesizer (trade name: AMS 422 Multiple Peptide Synthesizer, manufactured by ABiMED Co.) The synthesized peptide was released by a conventional method, and protecting groups were removed. The peptide obtained was retrieved by ether precipitation, and was purified by reversed phase HPLC after removing ether by drying. The purified peptides comprising 20 and 15 amino acids were allowed to react with ProCPR for 10 minutes at room temperature, followed by allowing the T/TM complex to react. After a reaction for 45 minutes at 37° C. by adding hippuril-L-arginine which is substrate of CPR, free hippuric acid was measured according to a reported method (Komura, H., et al., Effect of Anticoagulants in Colorimetric Assay for Basic Carboxypeptidase, Microbiol. Immunol., 46: 115-117, 2002). When 20-mer peptide and 15-mer peptide were added, activation of ProCPR to CPR with the T/TM complex was suppressed by adding 1 μM of respective peptides. […]
Sequence,color development depending on concentration of HIV-RT (sandwich ELISA) [1],pIC50 [2],suppressing activity against RT activity [2],suppression of activation of ProCPR to CPR with the T/TM complex [5],other results
TLMALELKGKLLLAGLAPSAFLPLSFPEL [TLMA2993],A color was developed depending on the concentration of HIV-RT,4.82,confirmed to suppress the activity of transcriptase,,
VGGRRTRARRVLLLVLTETH [complementary (mimetic) peptide to ProCPR positions 87-106],,,,confirmed to suppress activation of ProCPR,reactivity to ProCPR by surface plasmon resonance [3]: confirmed to be reactive to ProCPR; color development depending on concentration of plasma containing ProCPR (ELISA) [4]: color was developed depending on the concentration of the plasma; suppression of activation of ProCPR to CPR with the T/TM complex ([5]; listed as 20-mer peptide): suppressed
"PSTWPTFLKFQLK [PSTW1594, PSTWPTFLKFQLK]",,4.82,,,
ESLALYKSLQQSEMLLELEL [ESLA2340],A color was developed depending on the concentration of HIV-RT,4.77,confirmed to suppress the activity of transcriptase,,
"VSRGRRRDRRILMII [15-mer peptide, complementary (mimetic) peptide to ProCPR positions 87-101]",,,,suppressed,
